Entries after “also recorded” stand apart in the source; their conditions may differ.
Tests used:
cones of PDE-β−/− mice = experiment: Cone survival in PDE-β−/− mice after systemic insulin or streptozotocin treatment (lacZ staining of retinal flat mounts); type: in vivo, mouse; conditions: for cone survival: 4 weeks of treatment from PW3, read at PW7, versus uninjected control; for cone survival after prolonged treatment: 7 weeks of treatment from PW3, read at PW10, versus untreated
Method: (§1) Rapamycin, Streptozotocin and Insulin treatments were performed as follows. Rapamycin was diluted to 10 mg/ml in ethanol. The stock was diluted to 0.015 mg/ml in drinking water over a period of 2 weeks. A single intraperitoneal injection of 150 μl (12 mg/ml in 0.1M citric acid, ph4.5) of Streptozotocin was injected at postnatal day (P) 21. Insulin was injected intraperitoneally daily starting at P21. The concentration was increased weekly such that the first week, 10 U/kg body weight, the second 15 U/kg, the third 20 U/kg and fourth 30 U/kg body weight, were injected. In the treatment that lasted 7 weeks 30 U/kg body weight were injected for the remaining 3 weeks. Blood glucose levels were measured by collecting a drop of blood from the tail directly onto a test strip from TrueTrack smart system (CVS pharmacy). Eye bleeds were avoided due to the fact that cell survival in the retina was being assayed.
Quantification of cone survival was performed as follows. The colors of the bright light image were inverted and processed with Imaris software (Bitplane Inc) to calculate the percentage of blue surface area versus the total retinal surface area (see also FIG. 17). A minimum of 8 retinae per treatment, and for the control, were analyzed. P-values were calculated by the student's t-test.

HIF-1α = HIF-1α immunofluorescence on retinal flat mounts of treated PDE-β−/− mice; type: in vivo, mouse; conditions: PDE-β−/− mice treated for 4 weeks
Method: as §1, with “Eye bleeds were avoided due to the fact that cell survival in the retina was being assayed.” left out
(§2) Whole mount and section antibody staining were performed as previously (Punzo, C. & Cepko, C. L. (2008) Dev Dyn 237, 1034-42) described with the following modifications. […] Time points analyzed for the rod and cone death kinetics (P: postnatal day; PW: postnatal week): PDE-β−/−: P10-P20 daily, PW3-10 weekly, PW 12, PW15, PW18, PW45; PDE-γ-KO: P10-P20 daily, PW3-PW10 weekly, PW15, PW25, PW45; Rho-KO: PW4-PW8 weekly, PW10, PW11, PW17, PW20, PW25, PW27, PW31, PW34, PW37, PW45, PW55, PW80; P23H: PW5, PW10, PW16, PW25, PW30, PW35, PW40, PW65, PW70, PW75, PW80, PW85.

p*-mTOR in dorsal cones = experiment: Retinal explant culture of wild type mice, p*-mTOR immunofluorescence; type: cell-based, mouse; conditions: wild type retinal explants, 4 hours, absence of glucose, leucine added at 200 μM
Method: Retinal explant cultures: The retina was dissected free from other ocular tissues in DMEM, and then incubated in conditions according to the chart in FIG. 10a. Regular DMEM was at 4.5 g/L glucose, low glucose was at 1 g/L, leucine was added at 200 μM and FCS at 10%. Incubation was performed for 4 h and the retinae were fixed and processed for antibody staining as described below.
as §2, with “modifications. Antibody staining for LAMP-2: Triton was replaced with 0.01% Saponin. Antibody staining for p*-mTOR and p*-S6: PBS was replaced by TBS in every step of the procedure.” for “modifications.”

[1] = system: photoreceptors (rods and cones) of rd10 mouse; conditions: cited from earlier work

| Compound | cone survival (cones of PDE-β−/− mice) | cone survival after prolonged treatment (cones of PDE-β−/− mice) | other results |
| --- | --- | --- | --- |
| CN(N=O)C(=O)N[C@H]1C(O)O[C@H](CO)[C@@H](O)[C@@H]1O (mixture of isomers) [streptozotocin] | decrease in cone survival | no significant difference in cone survival |  |
| insulin | improved cone survival; also recorded: prolonged cone survival | did not show any significant improvement of cone survival; also recorded: no significant difference in cone survival | upregulation of HIF-1α in cones (HIF-1α): did not show the upregulation of HIF-1α; also recorded: prevented the upregulation of HIF-1α |
| CC(C)C[C@H](N)C(=O)O [leucine] |  |  | dorsal p*-mTOR with increased leucine (p*-mTOR in dorsal cones): abolished |
| proinsulin |  |  | hyperglycemia ([1]; mice treated with proinsulin): did not develop hyperglycemia; photoreceptor death ([1]; rd10 mouse, constitutive expression, rods and cones): delays photoreceptor death |
